EP4238971A1, “SUBSTITUTED ISOXAZOLINE DERIVATIVES” (BASF SE, priority 2022, dated 2023)

test system: Anthonomus grandis; assay: Boll weevil (Anthonomus grandis) control, insect diet in 96-well microtiter plates; assay type: in vivo; conditions: 2500ppm; egg and larval mortality visually assessed after 5 days
Description: (§1) If not otherwise specified, the test solutions were prepared as follows: The active compound was dissolved at the desired concentration in a mixture of 1:1 (vol:vol) distilled water:acetone. The test solution was prepared at the day of use.
(§2) Test solutions were prepared in general at a concentration of 2500ppm (wt/vol).
B.1. Boll weevil (Anthonomus grandis)
For evaluating control of boll weevil, the test unit consisted of 96-well-microtiter plates containing an insect diet and 5-10 A. grandis eggs.
The compounds were formulated using a solution containing 75% v/v water and 25% v/v DMSO. Different concentrations of formulated compounds were sprayed onto the insect diet at 5µl, using a custom-built micro atomizer, at two replications.
After application, microtiter plates were incubated at about 25 ± 1°C and about 75 ± 5 % relative humidity for 5 days. Egg and larval mortality were then visually assessed.

Row | SMILES | mortality in comparison with untreated controls
1 | CCN(C1=NOC(c2ccc(F)c(Cl)c2)(C(F)(F)F)C1)c1ccc(C#N)c(-n2cncn2)c1 (stereo not shown) [I-10] | at least 75%
2 | N#Cc1ccc(N(CC2CC2)C2=NOC(c3ccc(F)c(Cl)c3)(C(F)(F)F)C2)cc1-n1cncn1 (stereo not shown) [I-11] | at least 75%
3 | C#CCN(C1=NOC(c2ccc(F)c(Cl)c2)(C(F)(F)F)C1)c1ccc(C#N)c(-n2cncn2)c1 (stereo not shown) [I-12] | at least 75%
4 | Fc1c(Cl)cc(C2(C(F)(F)F)CC(Nc3ccc(Cl)c(-n4cncn4)c3)=NO2)cc1Cl (stereo not shown) [I-13] | at least 75%

test system: Myzus persicae; assay: Green peach aphid (Myzus persicae), mixed life stages, systemic test via artificial diet under membrane; assay type: in vivo; conditions: 2500ppm; aphid mortality visually assessed after 3 days
Description: as §1, §2
B.2. Green peach aphid (Myzus persicae) (mixed life stages)
For evaluating control of Green Peach Aphid through systemic means the test unit consisted of 96-well-microtiter plates containing liquid artificial diet under an artificial membrane. The compounds were formulated using a solution containing 75% v/v water and 25% v/v DMSO. Different concentrations of formulated compounds were pipetted into the aphid diet, using a custom-built pipette, at two replications. After application, 5 - 8 adult aphids were placed on the artificial membrane inside the microtiter plate wells. The aphids were then allowed to suck on the treated aphid diet and incubated at about 23 ± 1°C and about 50 ± 5 % relative humidity for 3 days. Aphid mortality and fecundity was then visually assessed.

Row | SMILES | mortality in comparison with untreated controls
5 | CCN(C1=NOC(c2ccc(F)c(Cl)c2)(C(F)(F)F)C1)c1ccc(C#N)c(-n2cncn2)c1 (stereo not shown) [I-10] | at least 75%
6 | N#Cc1ccc(N(CC2CC2)C2=NOC(c3ccc(F)c(Cl)c3)(C(F)(F)F)C2)cc1-n1cncn1 (stereo not shown) [I-11] | at least 75%
7 | C#CCN(C1=NOC(c2ccc(F)c(Cl)c2)(C(F)(F)F)C1)c1ccc(C#N)c(-n2cncn2)c1 (stereo not shown) [I-12] | at least 75%
8 | Fc1c(Cl)cc(C2(C(F)(F)F)CC(Nc3ccc(Cl)c(-n4cncn4)c3)=NO2)cc1Cl (stereo not shown) [I-13] | at least 75%

test system: Heliothis virescens; assay: Tobacco budworm (Heliothis virescens) control, insect diet in 96-well microtiter plates; assay type: in vivo; conditions: 2500ppm; egg and larval mortality visually assessed after 5 days
Description: as §1, §2
B.3. Tobacco budworm (Heliothis virescens)
For evaluating control of Tobacco Budworm, the test unit consisted of 96-well-microtiter plates containing an insect diet and 15-25 H. virescens eggs. The compounds were formulated using a solution containing 75% v/v water and 25% v/v DMSO. Different concentrations of formulated compounds were sprayed onto the insect diet at 10µl, using a custom-built micro atomizer, at two replications. After application, microtiter plates were incubated at about 28 ± 1°C and about 80 ± 5 % relative humidity for 5 days. Egg and larval mortality was then visually assessed.

Row | SMILES | mortality in comparison with untreated controls
9 | CCN(C1=NOC(c2ccc(F)c(Cl)c2)(C(F)(F)F)C1)c1ccc(C#N)c(-n2cncn2)c1 (stereo not shown) [I-10] | at least 75%
10 | N#Cc1ccc(N(CC2CC2)C2=NOC(c3ccc(F)c(Cl)c3)(C(F)(F)F)C2)cc1-n1cncn1 (stereo not shown) [I-11] | at least 75%
11 | C#CCN(C1=NOC(c2ccc(F)c(Cl)c2)(C(F)(F)F)C1)c1ccc(C#N)c(-n2cncn2)c1 (stereo not shown) [I-12] | at least 75%
12 | Fc1c(Cl)cc(C2(C(F)(F)F)CC(Nc3ccc(Cl)c(-n4cncn4)c3)=NO2)cc1Cl (stereo not shown) [I-13] | at least 75%

test system: Aedes aegypti; assay: whole plant or invertebrate; assay type: in vivo; conditions: 2500ppm; larval mortality visually assessed after 2 days
Description: as §1, §2
B.4. Yellow fever mosquito (Aedes aegypti)
For evaluating control of Yellow Fever Mosquito, the test unit consisted of 96-well-microtiter plates containing 200µl of tap water per well and 5-15 freshly hatched A. aegypti larvae. The active compounds were formulated using a solution containing 75% (v/v) water and 25% (v/v) DMSO. Different concentrations of formulated compounds or mixtures were sprayed onto the insect diet at 2.5µl, using a custom-built micro atomizer, at two replications.
After application, microtiter plates were incubated at 28 ± 1°C, 80 ± 5 % RH for 2 days. Larval mortality was then visually assessed.

Row | SMILES | mortality in comparison with untreated controls
13 | CCN(C1=NOC(c2ccc(F)c(Cl)c2)(C(F)(F)F)C1)c1ccc(C#N)c(-n2cncn2)c1 (stereo not shown) [I-10] | at least 75%
14 | N#Cc1ccc(N(CC2CC2)C2=NOC(c3ccc(F)c(Cl)c3)(C(F)(F)F)C2)cc1-n1cncn1 (stereo not shown) [I-11] | at least 75%
15 | C#CCN(C1=NOC(c2ccc(F)c(Cl)c2)(C(F)(F)F)C1)c1ccc(C#N)c(-n2cncn2)c1 (stereo not shown) [I-12] | at least 75%
16 | Fc1c(Cl)cc(C2(C(F)(F)F)CC(Nc3ccc(Cl)c(-n4cncn4)c3)=NO2)cc1Cl (stereo not shown) [I-13] | at least 75%

test system: Plutella xylostella; assay: Diamond back moth (Plutella xylostella), cabbage leaf disc dip test; assay type: in vivo; conditions: 300ppm; 3rd instar larvae; mortality recorded 72 hours after treatment
Description: B.5. Diamond back moth (Plutella xylostella)
The active compound was dissolved at the desired concentration in a mixture of 1:1 (vol:vol) distilled water: acetone. Surfactant (Kinetic) was added at a rate of 0.01% (vol/vol). The test solution was prepared at the day of use. Cabbage leaf discs (60mm in diameter) were dipped in test solution and air-dried. Treated leaves were placed in petri dishes lined with moistened filter paper and inoculated with ten 3rd instar larvae. Mortality was recorded 72 hours after treatment. Feeding damages were also recorded using a scale of 0-100%.

Row | SMILES | mortality in comparison with untreated controls
17 | CCN(C1=NOC(c2ccc(F)c(Cl)c2)(C(F)(F)F)C1)c1ccc(C#N)c(-n2cncn2)c1 (stereo not shown) [I-10] | at least 75%
18 | N#Cc1ccc(N(CC2CC2)C2=NOC(c3ccc(F)c(Cl)c3)(C(F)(F)F)C2)cc1-n1cncn1 (stereo not shown) [I-11] | at least 75%
19 | C#CCN(C1=NOC(c2ccc(F)c(Cl)c2)(C(F)(F)F)C1)c1ccc(C#N)c(-n2cncn2)c1 (stereo not shown) [I-12] | at least 75%
20 | Fc1c(Cl)cc(C2(C(F)(F)F)CC(Nc3ccc(Cl)c(-n4cncn4)c3)=NO2)cc1Cl (stereo not shown) [I-13] | at least 75%

test system: Dichromothrips corbetti; assay: Orchid thrips (Dichromothrips corbetti), floral-immersion technique; assay type: in vivo; conditions: 300ppm; adult thrips; mortality recorded 72 hours after treatment
Description: B.6. Orchid thrips (Dichromothrips corbetti)
Dichromothrips corbetti adults used for bioassay were obtained from a colony maintained continuously under laboratory conditions. For testing purposes, the test compound was diluted in a 1:1 mixture of acetone:water (vol:vol), plus Kinetic at a rate of 0.01% v/v.
Thrips potency of each compound was evaluated by using a floral-immersion technique. Each orchid petal was dipped into treatment solution and allowed to dry in Petri dishes. Treated petals were placed into individual re-sealable plastic along with about 20 adult thrips. All test arenas were held under dark condition and a temperature of about 28°C for duration of the assay. The percent mortality was recorded 72 hours after treatment.

Row | SMILES | mortality in comparison with untreated controls
21 | CCN(C1=NOC(c2ccc(F)c(Cl)c2)(C(F)(F)F)C1)c1ccc(C#N)c(-n2cncn2)c1 (stereo not shown) [I-10] | at least 75%
22 | N#Cc1ccc(N(CC2CC2)C2=NOC(c3ccc(F)c(Cl)c3)(C(F)(F)F)C2)cc1-n1cncn1 (stereo not shown) [I-11] | at least 75%
23 | C#CCN(C1=NOC(c2ccc(F)c(Cl)c2)(C(F)(F)F)C1)c1ccc(C#N)c(-n2cncn2)c1 (stereo not shown) [I-12] | at least 75%

test system: Spodoptera eridania; assay: Southern armyworm (Spodoptera eridania), 2nd instar larvae, sprayed lima bean plants; assay type: in vivo; conditions: 300ppm; 2nd instar larvae; assessed 4 days after treatment
Description: B.7. Southern armyworm (Spodoptera eridania), 2nd instar larvae
The active compounds were formulated by a Tecan liquid handler in 100% cyclohexanone as a 10'000 ppm solution supplied in tubes. The 10'000 ppm solution was serially diluted in 100% cyclohexanone to make interim solutions. These served as stock solutions for which final dilutions were made by the Tecan in 50% acetone:50% water (v/v) into 10 or 20ml glass vials. A nonionic surfactant (Kinetic®) was included in the solution at a volume of 0.01% (v/v). The vials were then inserted into an automated electrostatic sprayer equipped with an atomizing nozzle for application to plants/insects. Lima bean plants (variety Sieva) were grown 2 plants to a pot and selected for treatment at the 1st true leaf stage. Test solutions were sprayed onto the foliage by an automated electrostatic plant sprayer equipped with an atomizing spray nozzle. The plants were dried in the sprayer fume hood and then removed from the sprayer. Each pot was placed into perforated plastic bags with a zip closure. Ten to 11 armyworm larvae were placed into the bag and the bags zipped closed. Test plants were maintained in a growth room at about 25°C and about 20-40% relative humidity for 4 days, avoiding direct exposure to fluorescent light (14:10 light:dark photo-period) to prevent trapping of heat inside the bags. Mortality and reduced feeding were assessed 4 days after treatment, compared to untreated control plants.

Row | SMILES | mortality in comparison with untreated controls
24 | CCN(C1=NOC(c2ccc(F)c(Cl)c2)(C(F)(F)F)C1)c1ccc(C#N)c(-n2cncn2)c1 (stereo not shown) [I-10] | at least 75%
25 | N#Cc1ccc(N(CC2CC2)C2=NOC(c3ccc(F)c(Cl)c3)(C(F)(F)F)C2)cc1-n1cncn1 (stereo not shown) [I-11] | at least 75%
26 | C#CCN(C1=NOC(c2ccc(F)c(Cl)c2)(C(F)(F)F)C1)c1ccc(C#N)c(-n2cncn2)c1 (stereo not shown) [I-12] | at least 75%
27 | Fc1c(Cl)cc(C2(C(F)(F)F)CC(Nc3ccc(Cl)c(-n4cncn4)c3)=NO2)cc1Cl (stereo not shown) [I-13] | at least 75%

test system: Bemisia argentifolii; assay: Silverleaf whitefly (Bemisia argentifolii) adults, sprayed cotton plants; assay type: in vivo; conditions: 300 ppm; adults; assessed 3 days after treatment
Description: B.8. Silverleaf whitefly (Bemisia argentifolii) (adults)
The active compounds were formulated by a Tecan liquid handler in 100% cyclohexanone as a 10,000-ppm solution supplied in tubes. The 10,000-ppm solution was serially diluted in 100% cyclohexanone to make interim solutions. These served as stock solutions for which final dilutions were made by the Tecan in 50% acetone:50% water (v/v) into 5 or 10ml glass vials. A nonionic surfactant (Kinetic®) was included in the solution at a volume of 0.01% (v/v). The vials were then inserted into an automated electrostatic sprayer equipped with an atomizing nozzle for application to plants/insects. Cotton plants at the cotyledon stage (one plant per pot) were sprayed by an automated electrostatic plant sprayer equipped with an atomizing spray nozzle. The plants were dried in the sprayer fume hood and then removed from the sprayer. Each pot was placed into a plastic cup and about 10 to 12 whitefly adults (approximately 3-5 days old) were introduced. The insects were collected using an aspirator and a nontoxic Tygon® tubing connected to a barrier pipette tip. The tip, containing the collected insects, was then gently inserted into the soil containing the treated plant, allowing insects to crawl out of the tip to reach the foliage for feeding. Cups were covered with a reusable screened lid. Test plants were maintained in a growth room at about 25°C and about 20-40% relative humidity for 3 days, avoiding direct exposure to fluorescent light (14:10 light:dark photoperiod) to prevent trapping of heat inside the cup. Mortality was assessed 3 days after treatment, compared to untreated control plants.

Row | SMILES | mortality in comparison with untreated controls
28 | Fc1c(Cl)cc(C2(C(F)(F)F)CC(Nc3ccc(Cl)c(-n4cncn4)c3)=NO2)cc1Cl (stereo not shown) [I-13] | at least 75%
